According to US20240336563A1, “G-ALPHA-S INHIBITORS AND USES THEREOF” (The Regents of the University of California, priority 2021, published 2024):
“Also recorded” adds a separate entry of the source.

Legend:
Gαs(R201C) = Gαs(R201C) (Homo sapiens, UniProt P63092, R201C); test: Cysteine modification by acrylamidine; format: binding; settings: R201C mutant
Source text: (§1) The R201C mutation results in the loss of ammonium η1 and η2 of R201 thus freeing E50 to interact with R258 and R265 to indirectly stabilize switch II in an active-like conformation. Based on this finding, replacing the side chain of R201C with a close mimic of native arginine which contains N(η1) and N(η2) may correct the misactivation of the R201C mutant. […] This modification converts cysteine to an arginine mimic (FIG. 3A).

Gαs(R201C/C237S) [1] = biological target: T1, Gαs(R201C/C237S) (Homo sapiens, UniProt P63092, C237S/R201C); test: Cysteine modification by acrylamidine; format: binding; settings: R201C/C237S double mutant
T1 sequence (P63092 7-380 isoform P63092-2 R187C/C223S limits assumed): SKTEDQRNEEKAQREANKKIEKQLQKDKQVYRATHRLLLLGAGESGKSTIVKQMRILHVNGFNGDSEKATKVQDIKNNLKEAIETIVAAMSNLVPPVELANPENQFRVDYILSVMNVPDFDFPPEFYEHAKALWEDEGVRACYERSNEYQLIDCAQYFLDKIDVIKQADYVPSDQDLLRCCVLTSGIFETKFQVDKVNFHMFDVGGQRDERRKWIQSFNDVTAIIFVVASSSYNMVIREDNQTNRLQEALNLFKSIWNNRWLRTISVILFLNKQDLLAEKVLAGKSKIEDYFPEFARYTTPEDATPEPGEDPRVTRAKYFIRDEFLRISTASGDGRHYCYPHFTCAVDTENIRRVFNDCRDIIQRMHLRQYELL
Source text: as §1

[2] = biological target: GDP-bound Gαs(R201C/C237S) (Homo sapiens, UniProt P63092, C237S/R201C); test: Adenylyl cyclase-activating activity of Acr-modified Gαs; format: biochemical; settings: in the presence of GDP and Gβ1/Gγ2(C68S), free Acr removed by gel filtration
GDP-bound Gαs(R201C/C237S), sequence (P63092 7-380 isoform P63092-2 R187C/C223S limits assumed): as above
Experimental: (§2) FIGS. 3A-3C show modification of C201 by acrylamide. […] The data represents the mean SE of three independent measurements. […] The data represents the mean±SD of at least three independent measurements.
(§3) Also effect of modifying C201 with Acr on the adenylyl cyclase-activating activity of GDP-bound Gαs(R201C/C237S) was calculated. […] The kcat of Gαs(C237S) is 1.539±0.153 min^−1 (measured at 0° C.), slightly higher than that of WT Gαs (FIG. 3C). […] Following Acr modification of the R201C/C237S mutant its kcat increased to 0.471±0.043 min^−1 (measured at 0° C.), about 30% of that of Gαs(C237S).

Gαs(R201C/C237S) [3] = biological target: T1, Gαs(R201C/C237S); test: Single turnover GTPase activity of Acr-modified Gαs; format: biochemical
Experimental: as §2, §3

Gαs(R201C), sequence (P63092 7-380 isoform P63092-2 R187C limits assumed): as the sequence (P63092 7-380 isoform P63092-2 R187C/C223S limits assumed) above, with S217C counted along it

C=CC(=N)N [Acr, acrylamidine]
cysteines modified by Acr (Gαs(R201C)): can modify Cys237 and Cys201
cysteines modified by Acr (Gαs(R201C/C237S) [1]): only Cys201 can be modified
ability of Acr-modified Gαs(R201C/C237S) to activate adenylyl cyclase [2]: lowered to the same level as that of Gαs(C237S); also recorded: decreased
single turnover GTPase activity of the R201C/C237S mutant after modification of C201 by Acr (Gαs(R201C/C237S) [3]; FIG. 3C legend): increased the single turnover GTPase activity of the R201C/C237S mutant to a level close to that of the C237S mutant
kcat after Acr modification relative to that of Gαs(C237S) (Gαs(R201C/C237S) [3]; measured at 0° C.): about 30%
kcat of R201C/C237S mutant following Acr modification (Gαs(R201C/C237S) [3]; measured at 0° C.): 0.00785 ± 0.000717 s⁻¹
